Experimental data published in patent US20250340590A1, “PEPTIDE HAVING ANTI-INFLAMMATORY ACTIVITY AND USE THEREOF” (CAREGEN CO., LTD., priority 2021, published 2025).

What was measured:
iNos = iNos protein level by Western blot in HaCaT cells induced with LPS, TGFβ and IL-23; format: cell-based, human; conditions: IL-23 and LPS, peptide at 5 μM and 50 μM, 24 hours, compared to group not treated with the peptide
Experimental: (§1) In order to further confirm the anti-inflammatory effect of the peptide treatment of the present invention in addition to the results of Experimental Example 1, HaCaT cells were treated with Th17 (type 17), which is an inflammation-inducing substance, and the expression levels of inflammation-inducing markers iNos and Cox2 were confirmed. As the inflammation-inducing substances, the cells were treated with LPS, TGFβ, and IL-23, and since iNos is an enzyme involved in the production of nitric oxide (NO), which is an inflammation-related protein induced by LPS, etc., it is possible to confirm whether inflammation is inhibited by measuring the expression levels of iNos and Cox2.
(§2) HaCaT cells were dispensed into a 24-well plate at a concentration of 3× 10^5 cells/well and cultured until the next day. The medium was replaced with serum-free medium, and after 4 hours, the cells were treated with TGFβ, IL-23, and LPS, which are Th17 type inflammation-inducing cytokines, and then with the peptide of the present invention and cultured again for another 24 hours. […] In order to perform Western blotting, the amounts of iNos and Cox2 proteins were measured using an anti-iNos antibody and an anti-Cox2 antibody (Cell Signaling Technology, USA). […]

Cox2 = Cox2 protein level by Western blot in HaCaT cells induced with LPS, TGFβ and IL-23; format: cell-based, human; conditions: IL-23 and LPS, peptide at 5 μM and 50 μM, 24 hours, compared to group not treated with the peptide
Experimental: as §1, §2

IFNγ = IFNγ secretion by ELISA in TNFα-induced mouse splenocytes; format: cell-based; conditions: TNFα 20 nM, 24 hours
Experimental: Inflammation was induced by treating mouse splenocytes with the inflammatory cytokine TNFα, and the secretion amounts of the inflammatory cytokines IL-17, IL-1B, and IFNγ were confirmed. IL-17 corresponds to a pro-inflammatory cytokine, and the descriptions of IL-1β and IFNγ are the same as above.
Mouse splenocytes were dispensed into a 24-well plate at a concentration of 1×10^7 cells/well and cultured until the next day. The medium was replaced with serum-free medium, and after 4 hours, the cells were treated with TNFα and the peptide of the present invention and then cultured again for another 24 hours. In order to induce inflammation, the cells were treated with TNFα at 20 nM, and the peptide at 5 μM and 50 μM, respectively. The mouse splenocytes in the group in which inflammation was not induced due to untreatment with TNFα (NON); the negative control group in which the cells were treated with TNFα but not treated with the peptide (NC); and the group in which the cells were treated with TNFα along with the peptide of the present invention at the same concentration as above, respectively, were reacted as described above and the cell cultures were recovered. […]

IL-17 = IL-17 secretion by ELISA in mouse splenocytes induced with LPS, TGFβ and IL-23; format: cell-based; conditions: LPS 2 μg/mL, TGFβ 20 ng/ml, IL-23 20 ng/mL, 24 hours
Text: (§3) Inflammation was induced by treating mouse splenocytes with LPS, which is an inflammation-inducing antigen, and TGFβ and IL-23, which are inflammatory cytokines, and the secretion amounts of the inflammatory cytokines IL-17, IL-1β, and IFNγ were confirmed. The descriptions of IL-17, IL-1B, and IFNγ are the same as above.
(§4) Mouse splenocytes were dispensed into a 24-well plate at a concentration of 1×10^7 cells/well and cultured until the next day. The medium was replaced with serum-free medium, and after 4 hours, the cells were treated with LPS, TGFβ, and IL-23 and the peptide of the present invention and then cultured again for another 24 hours. In order to induce inflammation, the cells were treated with LPS at 2 μg/mL, TGFβ at 20 ng/ml, IL-23 at 20 ng/mL, and the peptide at 5 μM and 50 μM, respectively. The mouse splenocytes in the group in which inflammation was not induced due to untreatment with LPS, TGFβ, and IL-23 (NON); the negative control group in which the cells were treated with LPS, TGFβ, and IL-23 but not treated with the peptide (NC); and the group in which the cells were treated with LPS, TGFβ, and IL-23 along with the peptide of the present invention at the same concentration as above, respectively, were reacted as described above and the cell cultures were recovered. […]

IL-1β = IL-1β secretion by ELISA in mouse splenocytes induced with LPS, TGFβ and IL-23; format: cell-based; conditions: LPS 2 μg/mL, TGFβ 20 ng/ml, IL-23 20 ng/mL, 24 hours
Text: as §3, §4

## TWNS [peptide of the present invention]
iNos
  expression level of iNos protein: decreased
Cox2
  expression level of Cox2 protein: decreased
IFNγ; peptide at 5 μM
  secretion amount of IFNγ: decreased
IFNγ; peptide at 50 μM
  secretion amount of IFNγ: decreased
IL-17; peptide at 5 μM
  secretion amount of IL-17: slightly increased
IL-17; peptide at 50 μM
  secretion amount of IL-17: decreased
IL-1β; peptide at 5 μM
  secretion amount of IL-1β: decreased
IL-1β; peptide at 50 μM
  secretion amount of IL-1β: decreased
